Test results as given in US20250084061A1, “SULFONYL FUNCTIONAL COMPOUND, METHODS AND USES THEREOF” (Hubei Biopesticide Engineering Research Centre, priority 2023, published 2025).
Read-outs that look alike come from different tables or passages of the source.

Assays:
Alternaria kikuchiana = assay: Bactericidal (fungicidal) activity by microdilution; type: cell-based
Plutella xylostella = assay: Insecticidal activity, artificial feed surface coating method; type: in vivo; conditions: Plutella xylostella, read-out: Insecticidal activity (mortality rate grade) Plutella xylostella
Summary of the method: (§1)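 Artificial diet in 24-well plates, surface-coated with test solution at 500, 250 and 125 mg/L. Each concentration was tested in two replicates (Rep1, Rep2).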

Heliothis armigera = assay: as above; type: in vivo; conditions: Helicoverpa armigera, read-out: Insecticidal activity (mortality rate grade) Heliothis armigera
Summary of the method: as §1

[1] = tested on: Corynespora leaf spot of tomato; assay: Bactericidal (fungicidal) activity by microdilution; type: cell-based
Aphiscraccivora = assay: Insecticidal activity, dipping method; type: in vivo
Summary of the method: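 Aphids tested by dipping in ethanol-dissolved compound diluted to 500, 250 or 125 mg/L with 0.1 mL/L Tween-80, two replicates plus blank control. Mortality scored on a 0/3/5/7/9 scale for 0–30, 30–50, 50–70, 70–90 and 90–100%.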

Pythium aphanidermatum = assay: Bactericidal (fungicidal) activity by microdilution; type: cell-based
Septoria nodorum Berk. = assay: as above; type: cell-based
[2] = tested on: Colletotrichum gloeobosporioids; assay: as above; type: cell-based
Magnaporthe oryzae = type: cell-based
Thanatephorus cucumeris = assay: Bactericidal (fungicidal) activity by microdilution; type: cell-based
Botrytis cinerea = assay: as above; type: cell-based
Rhizoctonia solani = assay: as above; type: cell-based
[3] = tested on: Fusarium oxysporum f. sp. Niveum; assay: as above; type: cell-based
[4] = tested on: Verticillium dahliae.kieb.; assay: as above; type: cell-based
Leptosphaeria biglobosa = assay: as above; type: cell-based
Fusarium culmorum = assay: as above; type: cell-based

COC(=O)Nc1nc2ccccc2n1C/C=C/S(=O)(=O)O [III-2]
Fungicidal activity (antibacterial rate grade) Alternaria kikuchiana (Alternaria kikuchiana; 12.5 mg/L): 3 (The antibacterial rate of 0˜30% could be set as 3 if the growth of the target is normal and consistent with that of the blank control)
Fungicidal activity (antibacterial rate grade) Alternaria kikuchiana (Alternaria kikuchiana; 25 mg/L): 3 (The antibacterial rate of 0˜30% could be set as 3 if the growth of the target is normal and consistent with that of the blank control)
Fungicidal activity (antibacterial rate grade) Alternaria kikuchiana (Alternaria kikuchiana; 50 mg/L): 3 (The antibacterial rate of 0˜30% could be set as 3 if the growth of the target is normal and consistent with that of the blank control)
Fungicidal activity (antibacterial rate grade) Alternaria kikuchiana (Alternaria kikuchiana; 100 mg/L): 3 (The antibacterial rate of 0˜30% could be set as 3 if the growth of the target is normal and consistent with that of the blank control)
mortality at 125 µg/mL (Plutella xylostella; 125 mg/L test solution): 0 to 30%
mortality at 250 µg/mL (Plutella xylostella; 250 mg/L test solution): 0 to 30%
mortality at 500 µg/mL (Plutella xylostella; 500 mg/L test solution): 0 to 30%
mortality at 125 µg/mL (Heliothis armigera; 125 mg/L test solution): 0 to 30%
mortality at 250 µg/mL (Heliothis armigera; 250 mg/L test solution): 0 to 30%
mortality at 500 µg/mL (Heliothis armigera; 500 mg/L test solution): 0 to 30%
Fungicidal activity (antibacterial rate grade) Corynespora leaf spot of tomato ([1]; 12.5 mg/L): 3 (The antibacterial rate of 0˜30% could be set as 3 if the growth of the target is normal and consistent with that of the blank control)
Fungicidal activity (antibacterial rate grade) Corynespora leaf spot of tomato ([1]; 25 mg/L): 3 (The antibacterial rate of 0˜30% could be set as 3 if the growth of the target is normal and consistent with that of the blank control)
Fungicidal activity (antibacterial rate grade) Corynespora leaf spot of tomato ([1]; 50 mg/L): 7 (The antibacterial rate of 70˜90% could be set as 7 if the target has small amounts of growth)
Fungicidal activity (antibacterial rate grade) Corynespora leaf spot of tomato ([1]; 100 mg/L): 7 (The antibacterial rate of 70˜90% could be set as 7 if the target has small amounts of growth)
Insecticidal activity (mortality rate grade) Aphiscraccivora (Aphiscraccivora; 125 mg/L test solution): 0 (mortality rate of 0˜30%)
Insecticidal activity (mortality rate grade) Aphiscraccivora (Aphiscraccivora; 250 mg/L test solution): 0 (mortality rate of 0˜30%)
Insecticidal activity (mortality rate grade) Aphiscraccivora (Aphiscraccivora; 500 mg/L test solution): 0 (mortality rate of 0˜30%)
Fungicidal activity (antibacterial rate grade) Pythium aphanidematum (Pythium aphanidermatum; 12.5 mg/L): 3 (The antibacterial rate of 0˜30% could be set as 3 if the growth of the target is normal and consistent with that of the blank control)
Fungicidal activity (antibacterial rate grade) Pythium aphanidematum (Pythium aphanidermatum; 25 mg/L): 3 (The antibacterial rate of 0˜30% could be set as 3 if the growth of the target is normal and consistent with that of the blank control)
Fungicidal activity (antibacterial rate grade) Pythium aphanidematum (Pythium aphanidermatum; 50 mg/L): 3 (The antibacterial rate of 0˜30% could be set as 3 if the growth of the target is normal and consistent with that of the blank control)
Fungicidal activity (antibacterial rate grade) Pythium aphanidematum (Pythium aphanidermatum; 100 mg/L): 3 (The antibacterial rate of 0˜30% could be set as 3 if the growth of the target is normal and consistent with that of the blank control)
Fungicidal activity (antibacterial rate grade) Septoria nodorum Berk. (Septoria nodorum Berk.; 12.5 mg/L): 9 (The antibacterial rate of 90˜100% could be set as 9 if the target has totally no growth)
Fungicidal activity (antibacterial rate grade) Septoria nodorum Berk. (Septoria nodorum Berk.; 25 mg/L): 9 (The antibacterial rate of 90˜100% could be set as 9 if the target has totally no growth)
Fungicidal activity (antibacterial rate grade) Septoria nodorum Berk. (Septoria nodorum Berk.; 50 mg/L): 9 (The antibacterial rate of 90˜100% could be set as 9 if the target has totally no growth)
Fungicidal activity (antibacterial rate grade) Septoria nodorum Berk. (Septoria nodorum Berk.; 100 mg/L): 9 (The antibacterial rate of 90˜100% could be set as 9 if the target has totally no growth)
Fungicidal activity (antibacterial rate grade) Colletotrichum gloeobosporioids ([2]; 12.5 mg/L): 9 (The antibacterial rate of 90˜100% could be set as 9 if the target has totally no growth)
Fungicidal activity (antibacterial rate grade) Colletotrichum gloeobosporioids ([2]; 25 mg/L): 9 (The antibacterial rate of 90˜100% could be set as 9 if the target has totally no growth)
Fungicidal activity (antibacterial rate grade) Colletotrichum gloeobosporioids ([2]; 50 mg/L): 9 (The antibacterial rate of 90˜100% could be set as 9 if the target has totally no growth)
Fungicidal activity (antibacterial rate grade) Colletotrichum gloeobosporioids ([2]; 100 mg/L): 9 (The antibacterial rate of 90˜100% could be set as 9 if the target has totally no growth)
Fungicidal activity (antibacterial rate grade) Magnaporthe oryzae (Magnaporthe oryzae; 12.5 mg/L): 9 (The antibacterial rate of 90˜100% could be set as 9 if the target has totally no growth)
Fungicidal activity (antibacterial rate grade) Magnaporthe oryzae (Magnaporthe oryzae; 25 mg/L): 9 (The antibacterial rate of 90˜100% could be set as 9 if the target has totally no growth)
Fungicidal activity (antibacterial rate grade) Magnaporthe oryzae (Magnaporthe oryzae; 50 mg/L): 9 (The antibacterial rate of 90˜100% could be set as 9 if the target has totally no growth)
Fungicidal activity (antibacterial rate grade) Magnaporthe oryzae (Magnaporthe oryzae; 100 mg/L): 9 (The antibacterial rate of 90˜100% could be set as 9 if the target has totally no growth)
Fungicidal activity (antibacterial rate grade) Thanatephorus cucumeris (Thanatephorus cucumeris; 12.5 mg/L): 9 (The antibacterial rate of 90˜100% could be set as 9 if the target has totally no growth)
Fungicidal activity (antibacterial rate grade) Thanatephorus cucumeris (Thanatephorus cucumeris; 25 mg/L): 9 (The antibacterial rate of 90˜100% could be set as 9 if the target has totally no growth)
Fungicidal activity (antibacterial rate grade) Thanatephorus cucumeris (Thanatephorus cucumeris; 50 mg/L): 9 (The antibacterial rate of 90˜100% could be set as 9 if the target has totally no growth)
Fungicidal activity (antibacterial rate grade) Thanatephorus cucumeris (Thanatephorus cucumeris; 100 mg/L): 9 (The antibacterial rate of 90˜100% could be set as 9 if the target has totally no growth)
Fungicidal activity (antibacterial rate grade) Botrytis cinerea (Botrytis cinerea; 12.5 mg/L): 3 (The antibacterial rate of 0˜30% could be set as 3 if the growth of the target is normal and consistent with that of the blank control)
Fungicidal activity (antibacterial rate grade) Botrytis cinerea (Botrytis cinerea; 25 mg/L): 3 (The antibacterial rate of 0˜30% could be set as 3 if the growth of the target is normal and consistent with that of the blank control)
Fungicidal activity (antibacterial rate grade) Botrytis cinerea (Botrytis cinerea; 50 mg/L): 3 (The antibacterial rate of 0˜30% could be set as 3 if the growth of the target is normal and consistent with that of the blank control)
Fungicidal activity (antibacterial rate grade) Botrytis cinerea (Botrytis cinerea; 100 mg/L): 3 (The antibacterial rate of 0˜30% could be set as 3 if the growth of the target is normal and consistent with that of the blank control)
Fungicidal activity (antibacterial rate grade) Rhizoctonia solani (Rhizoctonia solani; 12.5 mg/L): 3 (The antibacterial rate of 0˜30% could be set as 3 if the growth of the target is normal and consistent with that of the blank control)
Fungicidal activity (antibacterial rate grade) Rhizoctonia solani (Rhizoctonia solani; 25 mg/L): 3 (The antibacterial rate of 0˜30% could be set as 3 if the growth of the target is normal and consistent with that of the blank control)
Fungicidal activity (antibacterial rate grade) Rhizoctonia solani (Rhizoctonia solani; 50 mg/L): 3 (The antibacterial rate of 0˜30% could be set as 3 if the growth of the target is normal and consistent with that of the blank control)
Fungicidal activity (antibacterial rate grade) Rhizoctonia solani (Rhizoctonia solani; 100 mg/L): 3 (The antibacterial rate of 0˜30% could be set as 3 if the growth of the target is normal and consistent with that of the blank control)
Fungicidal activity (antibacterial rate grade) Fusarium oxysporum f. sp. Niveum ([3]; 12.5 mg/L): 9 (The antibacterial rate of 90˜100% could be set as 9 if the target has totally no growth)
Fungicidal activity (antibacterial rate grade) Fusarium oxysporum f. sp. Niveum ([3]; 25 mg/L): 9 (The antibacterial rate of 90˜100% could be set as 9 if the target has totally no growth)
Fungicidal activity (antibacterial rate grade) Fusarium oxysporum f. sp. Niveum ([3]; 50 mg/L): 9 (The antibacterial rate of 90˜100% could be set as 9 if the target has totally no growth)
Fungicidal activity (antibacterial rate grade) Fusarium oxysporum f. sp. Niveum ([3]; 100 mg/L): 9 (The antibacterial rate of 90˜100% could be set as 9 if the target has totally no growth)
Fungicidal activity (antibacterial rate grade) Verticillium dahliae. kieb. ([4]; 12.5 mg/L): 9 (The antibacterial rate of 90˜100% could be set as 9 if the target has totally no growth)
Fungicidal activity (antibacterial rate grade) Verticillium dahliae. kieb. ([4]; 25 mg/L): 9 (The antibacterial rate of 90˜100% could be set as 9 if the target has totally no growth)
Fungicidal activity (antibacterial rate grade) Verticillium dahliae. kieb. ([4]; 50 mg/L): 9 (The antibacterial rate of 90˜100% could be set as 9 if the target has totally no growth)
Fungicidal activity (antibacterial rate grade) Verticillium dahliae. kieb. ([4]; 100 mg/L): 9 (The antibacterial rate of 90˜100% could be set as 9 if the target has totally no growth)
Fungicidal activity (antibacterial rate grade) Leptosphaeria biglobosa (Leptosphaeria biglobosa; 12.5 mg/L): 9 (The antibacterial rate of 90˜100% could be set as 9 if the target has totally no growth)
Fungicidal activity (antibacterial rate grade) Leptosphaeria biglobosa (Leptosphaeria biglobosa; 25 mg/L): 9 (The antibacterial rate of 90˜100% could be set as 9 if the target has totally no growth)
Fungicidal activity (antibacterial rate grade) Leptosphaeria biglobosa (Leptosphaeria biglobosa; 50 mg/L): 9 (The antibacterial rate of 90˜100% could be set as 9 if the target has totally no growth)
Fungicidal activity (antibacterial rate grade) Leptosphaeria biglobosa (Leptosphaeria biglobosa; 100 mg/L): 9 (The antibacterial rate of 90˜100% could be set as 9 if the target has totally no growth)
Fungicidal activity (antibacterial rate grade) Fusarium culmorum (Fusarium culmorum; 12.5 mg/L): 7 (The antibacterial rate of 70˜90% could be set as 7 if the target has small amounts of growth)
Fungicidal activity (antibacterial rate grade) Fusarium culmorum (Fusarium culmorum; 25 mg/L): 9 (The antibacterial rate of 90˜100% could be set as 9 if the target has totally no growth)
Fungicidal activity (antibacterial rate grade) Fusarium culmorum (Fusarium culmorum; 50 mg/L): 9 (The antibacterial rate of 90˜100% could be set as 9 if the target has totally no growth)
Fungicidal activity (antibacterial rate grade) Fusarium culmorum (Fusarium culmorum; 100 mg/L): 9 (The antibacterial rate of 90˜100% could be set as 9 if the target has totally no growth)
